The test concerns Dspp gene. Briefly: mRNA level of Dspp gene in MDPC-23 cells by real-time PCR. The format is cell-based, mouse. The settings on record: 48 hours, ratio relative to Dspp mRNA level of control group, triplicate. Here is the method:
The MDPC-23 cells cultured in Example 2-1 were treated with the peptides of the respective groups which were synthesized in Example 1, and cultured for 48 hours. Then, mRNA levels of an odontoblast differentiation marker Dspp gene expressed in the MDPC-23 cells were measured, and a ratio of the measured Dspp mRNA level relative to a Dspp mRNA level measured in a control group was calculated, respectively (Tables 13 to 24). Further, mean values of the Dspp mRNA levels measured in the peptides of respective groups were compared between the groups (FIG. 1B). In this regard MDPC-23 cells which were treated with none of the peptides of the present invention were used as a control group.
The expression levels of the Dspp gene were measured by RT-PCR and real time PCR analysis: In detail, total RNA was extracted from the MDPC-23 cells with TRIzol reagent. 2 μg of the total RNA, 1 μl of reverse transcriptase, and 0.5 μg oligo (dT) were used to synthesize cDNA. The synthesized cDNA were used in real-time polymerase chain reaction. The real-time polymerase chain reaction was performed on an ABI PRISM 7500 sequence detection system (Applied Biosystems) using the following primers and a SYBR GREEN PCR Master Mix (Takara, Japan). The real-time polymerase chain reaction was performed under conditions of 94° C., 1 min; 95° C., 15 sec 60° C., 34 sec for 40 cycles. Results were analyzed by a comparative cycle threshold (CT) method. In this regard, Gapdh gene was used as an internal control. The experiments were performed in triplicate, and then mean values and standard deviations thereof were taken as measured values.

Here are results for 26 substances from patent US10844092B2, “Peptide for promoting regeneration of dentin or dental pulp tissue” (HysensBio Co., Ltd., priority 2016, dated 2020).

Consider “49 (KYRQRKKNYK; Synthetic construct of novel peptide) [compound 49]”, for which the “mRNA level of Dspp gene, Mean” value is recorded as 1.923.
Under “50 (KYRQRKRNYK; Synthetic construct of novel peptide) [compound 50]” stands 1.887.
Under “51 (KYRQRRKNYK; Synthetic construct of novel peptide) [compound 51]” stands 1.601; under “52 (KYRQRRRNYK; Synthetic construct of novel peptide) [compound 52]”, 2.019; under “53 (KYRQKKKNYK; Synthetic construct of novel peptide) [compound 53]”, 1.592.
As for “54 (KYRQKRKNYK; Synthetic construct of novel peptide) [compound 54]”, the figure is 1.437; as for “55 (KYRQKKRNYK; Synthetic construct of novel peptide) [compound 55]”, 1.663; as for “56 (KYRQKRRNYK; Synthetic construct of novel peptide) [compound 56]”, 1.701.
For the substance “57 (KYRQRKKSYK; Synthetic construct of novel peptide) [compound 57]”, the “mRNA level of Dspp gene, Mean” value is recorded as 2.039.
Under “58 (KYRQRKRSYK; Synthetic construct of novel peptide) [compound 58]” stands 1.998.
Under “59 (KYRQRRKSYK; Synthetic construct of novel peptide) [compound 59]” stands 1.792.
As for “60 (KYRQRRRSYK; Synthetic construct of novel peptide) [compound 60]”, the figure is 2.107; as for “61 (KYRQKKKSYK; Synthetic construct of novel peptide) [compound 61]”, 2.301; as for “62 (KYRQKRKSYK; Synthetic construct of novel peptide) [compound 62]”, 1.672.
Consider “63 (KYRQKKRSYK; Synthetic construct of novel peptide) [compound 63]”, for which the “mRNA level of Dspp gene, Mean” value is 1.769.
As for “64 (KYRQKRRSYK; Synthetic construct of novel peptide) [compound 64]”, the figure is 1.967; as for “65 (KYKQRKKNKY; Synthetic construct of novel peptide) [compound 65]”, 1.723; as for “66 (KYKQRKRNKY; Synthetic construct of novel peptide) [compound 66]”, 1.627.
As for “67 (KYKQRRKNKY; Synthetic construct of novel peptide) [compound 67]”, the figure is 1.777; as for “68 (KYKQRRRNKY; Synthetic construct of novel peptide) [compound 68]”, 1.432; as for “69 (KYKQKKKNKY; Synthetic construct of novel peptide) [compound 69]”, 2.011.
In the case of “70 (KYKQKRKNKY; Synthetic construct of novel peptide) [compound 70]”, the “mRNA level of Dspp gene, Mean” value worked out at 1.927.
Under “71 (KYKQKKRNKY; Synthetic construct of novel peptide) [compound 71]” stands 1.879; under “72 (KYKQKRRNKY; Synthetic construct of novel peptide) [compound 72]”, 2.011.
As for “73 (KYKQRKKSKY; Synthetic construct of novel peptide) [compound 73]”, the figure is 2.035.
Take “74 (KYKQRKRSKY; Synthetic construct of novel peptide) [compound 74]”: the “mRNA level of Dspp gene, Mean” value came to 2.011.
